Laboratory results from ChEMBL document CHEMBL1240295, “Specificity and mechanism of action of some commonly used protein kinase inhibitors” (Biochem J, 2000).

Assays:
[1] = biological target: Glycogen synthase kinase-3 beta (Homo sapiens, UniProt P49841); experiment: Inhibition of His-tagged human GSK3b expressed in Sf21 cells at 50 uM; values are per cent of control
[2] = species: Oryctolagus cuniculus; experiment: Inhibition of PHK from rabbit skeletal muscle at 50 uM; values are per cent of control; conditions: Muscle tissue
[3] = biological target: T1, Ribosomal protein S6 kinase alpha-5 (Homo sapiens, UniProt O75582); experiment: Inhibition of His-tagged human MSK1 expressed in Sf9 cells at 50 uM; values are per cent of control
T1 sequence (O75582 whole entry, looked up): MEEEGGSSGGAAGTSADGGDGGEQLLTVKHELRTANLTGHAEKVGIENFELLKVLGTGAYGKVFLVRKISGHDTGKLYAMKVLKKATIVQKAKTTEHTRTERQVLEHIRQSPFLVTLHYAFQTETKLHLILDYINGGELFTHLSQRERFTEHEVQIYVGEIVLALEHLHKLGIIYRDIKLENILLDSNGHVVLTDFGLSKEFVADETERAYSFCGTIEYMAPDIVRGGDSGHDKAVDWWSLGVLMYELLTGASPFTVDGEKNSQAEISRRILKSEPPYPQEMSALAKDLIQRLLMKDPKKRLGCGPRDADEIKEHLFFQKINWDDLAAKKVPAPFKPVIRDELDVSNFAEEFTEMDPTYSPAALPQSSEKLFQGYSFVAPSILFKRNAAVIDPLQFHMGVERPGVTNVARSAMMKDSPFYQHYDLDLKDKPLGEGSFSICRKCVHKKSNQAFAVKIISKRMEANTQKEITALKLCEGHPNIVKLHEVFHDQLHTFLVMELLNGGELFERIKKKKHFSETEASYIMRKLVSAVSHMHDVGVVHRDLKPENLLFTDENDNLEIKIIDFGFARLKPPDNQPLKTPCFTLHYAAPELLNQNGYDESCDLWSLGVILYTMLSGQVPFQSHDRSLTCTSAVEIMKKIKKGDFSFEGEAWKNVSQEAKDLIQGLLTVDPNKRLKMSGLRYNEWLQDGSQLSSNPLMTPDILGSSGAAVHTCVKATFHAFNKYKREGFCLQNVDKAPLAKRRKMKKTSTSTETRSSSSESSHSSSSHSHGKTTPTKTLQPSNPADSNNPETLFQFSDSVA

[4] = biological target: T2, Mitogen-activated protein kinase 13 (Homo sapiens) (UniProt O15264); experiment: Inhibition of His-tagged human SAPK4/p38delta expressed in Escherichia coli at 50 uM; values are per cent of control
T2 sequence (whole entry): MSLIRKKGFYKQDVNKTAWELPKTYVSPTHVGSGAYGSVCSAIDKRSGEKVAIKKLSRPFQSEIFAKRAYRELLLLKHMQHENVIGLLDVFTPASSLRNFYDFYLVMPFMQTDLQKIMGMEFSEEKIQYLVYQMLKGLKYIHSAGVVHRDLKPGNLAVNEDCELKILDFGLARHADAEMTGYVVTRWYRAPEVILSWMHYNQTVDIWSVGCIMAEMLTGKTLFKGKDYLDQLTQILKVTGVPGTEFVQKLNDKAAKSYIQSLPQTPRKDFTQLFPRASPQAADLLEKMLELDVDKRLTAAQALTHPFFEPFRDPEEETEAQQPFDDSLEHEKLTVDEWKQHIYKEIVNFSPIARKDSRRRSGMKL

[5] = biological target: T3, Mitogen-activated protein kinase 12 (Homo sapiens) (UniProt P53778); experiment: Inhibition of His-tagged human SAPK3/p38gamma expressed in Escherichia coli at 50 uM; values are per cent of control
T3 sequence (whole entry): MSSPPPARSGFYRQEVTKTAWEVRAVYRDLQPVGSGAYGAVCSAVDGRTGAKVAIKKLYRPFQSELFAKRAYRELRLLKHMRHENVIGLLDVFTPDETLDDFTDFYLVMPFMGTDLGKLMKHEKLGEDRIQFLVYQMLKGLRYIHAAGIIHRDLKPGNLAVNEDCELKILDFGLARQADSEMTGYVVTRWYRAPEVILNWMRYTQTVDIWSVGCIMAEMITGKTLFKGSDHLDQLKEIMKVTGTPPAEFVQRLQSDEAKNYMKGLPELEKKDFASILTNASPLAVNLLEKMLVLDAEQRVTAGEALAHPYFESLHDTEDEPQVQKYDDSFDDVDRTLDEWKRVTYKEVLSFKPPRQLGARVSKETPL

[6] = biological target: Mitogen-activated protein kinase 8 (Homo sapiens) (UniProt P45983); experiment: Inhibition of His-tagged human JNK1a1/SAPK1c expressed in Escherichia coli at 50 uM; values are per cent of control
Chain of Mitogen-activated protein kinase 8 (Homo sapiens) (P45983 whole entry): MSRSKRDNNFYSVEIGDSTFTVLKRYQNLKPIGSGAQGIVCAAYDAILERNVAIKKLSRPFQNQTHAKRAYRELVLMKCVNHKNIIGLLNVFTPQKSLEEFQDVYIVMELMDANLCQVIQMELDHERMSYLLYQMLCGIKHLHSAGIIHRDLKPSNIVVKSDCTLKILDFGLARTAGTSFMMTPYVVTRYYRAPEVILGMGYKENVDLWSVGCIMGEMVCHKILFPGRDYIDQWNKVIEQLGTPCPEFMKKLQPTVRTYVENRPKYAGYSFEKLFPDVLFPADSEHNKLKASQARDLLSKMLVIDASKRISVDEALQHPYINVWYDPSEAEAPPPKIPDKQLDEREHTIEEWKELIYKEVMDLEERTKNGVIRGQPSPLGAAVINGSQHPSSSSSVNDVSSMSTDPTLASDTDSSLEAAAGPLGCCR

[7] = biological target: MAP kinase-activated protein kinase 2 (Homo sapiens, UniProt P49137); experiment: Inhibition of His-tagged human MAPKAPK2 expressed in Escherichia coli at 50 uM; values are per cent of control
Chain of MAP kinase-activated protein kinase 2 (P49137 whole entry, looked up): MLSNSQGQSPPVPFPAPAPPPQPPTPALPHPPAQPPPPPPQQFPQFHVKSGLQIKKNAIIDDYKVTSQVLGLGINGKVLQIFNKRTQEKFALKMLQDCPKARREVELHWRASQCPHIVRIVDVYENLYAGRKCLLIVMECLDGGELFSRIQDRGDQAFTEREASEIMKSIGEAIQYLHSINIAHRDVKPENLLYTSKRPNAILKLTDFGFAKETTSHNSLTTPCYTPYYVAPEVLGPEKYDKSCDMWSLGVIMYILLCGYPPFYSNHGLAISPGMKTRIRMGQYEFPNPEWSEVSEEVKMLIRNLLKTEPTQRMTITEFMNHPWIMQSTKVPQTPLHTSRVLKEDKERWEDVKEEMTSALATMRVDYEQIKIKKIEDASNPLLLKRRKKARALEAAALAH

[8] = biological target: Rho-associated protein kinase 2 (Rattus norvegicus) (UniProt Q62868); experiment: Inhibition of rat ROCK2 expressed in Sf9 cells at 50 uM; conditions: values are per cent of control
Chain of Rho-associated protein kinase 2 (Rattus norvegicus) (Q62868 whole entry, looked up): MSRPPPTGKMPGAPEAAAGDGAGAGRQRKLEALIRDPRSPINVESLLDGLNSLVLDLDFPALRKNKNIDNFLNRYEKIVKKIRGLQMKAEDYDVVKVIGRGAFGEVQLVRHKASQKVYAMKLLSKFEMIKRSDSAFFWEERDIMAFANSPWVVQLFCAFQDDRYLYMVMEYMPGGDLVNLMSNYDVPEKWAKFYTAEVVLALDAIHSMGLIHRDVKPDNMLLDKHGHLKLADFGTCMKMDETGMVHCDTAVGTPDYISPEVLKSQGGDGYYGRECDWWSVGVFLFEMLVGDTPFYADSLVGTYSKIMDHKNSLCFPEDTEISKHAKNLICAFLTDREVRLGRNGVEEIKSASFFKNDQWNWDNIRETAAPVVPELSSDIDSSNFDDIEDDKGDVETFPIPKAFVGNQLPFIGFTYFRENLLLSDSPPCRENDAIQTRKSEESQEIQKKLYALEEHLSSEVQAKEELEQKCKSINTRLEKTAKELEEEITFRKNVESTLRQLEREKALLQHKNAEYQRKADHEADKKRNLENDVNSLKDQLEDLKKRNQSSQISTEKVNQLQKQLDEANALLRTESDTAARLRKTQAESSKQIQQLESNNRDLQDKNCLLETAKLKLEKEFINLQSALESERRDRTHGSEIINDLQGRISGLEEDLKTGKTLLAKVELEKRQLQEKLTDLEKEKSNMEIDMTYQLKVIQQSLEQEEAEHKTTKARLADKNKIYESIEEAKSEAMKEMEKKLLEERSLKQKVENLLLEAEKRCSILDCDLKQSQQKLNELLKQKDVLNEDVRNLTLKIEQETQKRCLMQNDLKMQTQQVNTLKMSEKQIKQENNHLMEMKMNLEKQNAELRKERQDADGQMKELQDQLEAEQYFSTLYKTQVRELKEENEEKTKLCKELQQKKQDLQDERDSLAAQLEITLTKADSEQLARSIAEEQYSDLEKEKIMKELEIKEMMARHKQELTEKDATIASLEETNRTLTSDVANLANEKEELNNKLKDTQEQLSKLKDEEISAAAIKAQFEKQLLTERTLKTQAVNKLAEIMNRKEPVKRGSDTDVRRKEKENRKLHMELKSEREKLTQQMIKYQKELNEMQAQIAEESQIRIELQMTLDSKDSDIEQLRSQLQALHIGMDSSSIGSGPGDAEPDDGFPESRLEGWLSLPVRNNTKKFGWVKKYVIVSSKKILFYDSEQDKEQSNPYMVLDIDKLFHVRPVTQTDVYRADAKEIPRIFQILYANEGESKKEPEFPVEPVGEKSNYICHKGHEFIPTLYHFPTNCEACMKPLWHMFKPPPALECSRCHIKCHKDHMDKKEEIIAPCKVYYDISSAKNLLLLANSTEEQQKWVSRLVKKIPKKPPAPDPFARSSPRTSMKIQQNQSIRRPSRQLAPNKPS

[9] = biological target: Mitogen-activated protein kinase 1 (Homo sapiens) (UniProt P28482); experiment: Inhibition of His-tagged human MAPK2/ERK2 expressed in Escherichia coli at 50 uM; values are per cent of control
[10] = species: Bos taurus; experiment: Inhibition of bovine heart PKA at 50 uM; values are per cent of control
[11] = biological target: T4, Serine/threonine-protein kinase Chk1 (Homo sapiens) (UniProt O14757); experiment: Inhibition of His-tagged human CHK1 expressed in Escherichia coli at 50 uM; values are per cent of control
T4 sequence (whole entry): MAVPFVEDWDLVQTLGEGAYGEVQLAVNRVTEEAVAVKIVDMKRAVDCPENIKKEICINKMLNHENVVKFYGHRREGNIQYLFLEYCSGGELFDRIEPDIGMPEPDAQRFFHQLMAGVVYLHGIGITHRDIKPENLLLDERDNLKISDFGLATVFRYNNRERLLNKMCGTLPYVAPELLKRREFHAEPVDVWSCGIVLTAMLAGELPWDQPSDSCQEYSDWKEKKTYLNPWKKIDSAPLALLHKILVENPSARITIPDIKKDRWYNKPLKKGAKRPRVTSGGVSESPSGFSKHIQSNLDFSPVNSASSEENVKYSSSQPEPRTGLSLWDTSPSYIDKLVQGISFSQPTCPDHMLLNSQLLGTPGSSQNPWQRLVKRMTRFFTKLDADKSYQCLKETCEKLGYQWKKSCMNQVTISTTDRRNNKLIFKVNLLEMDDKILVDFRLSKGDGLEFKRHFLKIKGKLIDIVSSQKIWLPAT

[12] = biological target: Mitogen-activated protein kinase 14 (Homo sapiens) (UniProt Q16539); experiment: Inhibition of His-tagged human SAPK2a/p38 expressed in Escherichia coli at 50 uM; values are per cent of control
[13] = biological target: T5, Ribosomal protein S6 kinase beta-1 (Homo sapiens, UniProt P23443); experiment: Inhibition of His-tagged human S6K1 expressed in Escherichia coli at 50 uM; values are per cent of control
T5 sequence (P23443 whole entry, looked up): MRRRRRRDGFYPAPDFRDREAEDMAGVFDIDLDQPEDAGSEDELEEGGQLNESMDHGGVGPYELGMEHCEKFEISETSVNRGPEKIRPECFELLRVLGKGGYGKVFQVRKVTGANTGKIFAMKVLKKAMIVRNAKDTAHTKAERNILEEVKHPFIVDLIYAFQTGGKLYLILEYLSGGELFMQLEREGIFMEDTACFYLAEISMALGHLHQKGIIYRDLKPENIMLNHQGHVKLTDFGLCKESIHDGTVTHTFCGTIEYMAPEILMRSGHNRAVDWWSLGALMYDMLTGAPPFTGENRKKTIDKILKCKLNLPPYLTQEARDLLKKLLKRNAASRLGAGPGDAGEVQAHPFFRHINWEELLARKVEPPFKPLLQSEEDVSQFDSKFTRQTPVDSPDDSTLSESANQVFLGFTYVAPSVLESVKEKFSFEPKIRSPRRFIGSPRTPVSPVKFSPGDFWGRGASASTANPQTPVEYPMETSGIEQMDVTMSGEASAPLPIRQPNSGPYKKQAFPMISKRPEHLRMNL

[14] = species: Oryctolagus cuniculus; experiment: Inhibition of rabbit MKK1 expressed in Escherichia coli at 50 uM; values are per cent of control
[15] = species: Rattus norvegicus; experiment: Inhibition of rat liver AMPK at 50 uM; values are per cent of control
[16] = biological target: Protein kinase C alpha type (Homo sapiens, UniProt P17252); experiment: Inhibition of His-tagged human PKCalpha expressed in Escherichia coli at 50 uM; values are per cent of control
[17] = biological target: Mitogen-activated protein kinase 11 (Homo sapiens) (UniProt Q15759); experiment: Inhibition of His-tagged human SAPK2b/p38b2 expressed in Escherichia coli at 50 uM; values are per cent of control
Chain of Mitogen-activated protein kinase 11 (Homo sapiens) (Q15759 whole entry): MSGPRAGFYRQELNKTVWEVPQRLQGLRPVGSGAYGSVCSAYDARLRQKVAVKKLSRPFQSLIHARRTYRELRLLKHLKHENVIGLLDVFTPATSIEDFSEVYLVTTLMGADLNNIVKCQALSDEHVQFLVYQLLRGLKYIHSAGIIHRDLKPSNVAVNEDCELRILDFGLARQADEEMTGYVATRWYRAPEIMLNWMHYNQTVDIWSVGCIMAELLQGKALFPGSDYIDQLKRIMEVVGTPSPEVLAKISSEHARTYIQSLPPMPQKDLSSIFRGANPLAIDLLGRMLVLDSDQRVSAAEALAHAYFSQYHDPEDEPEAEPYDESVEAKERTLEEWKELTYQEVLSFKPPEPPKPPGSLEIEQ

[18] = biological target: RAC-alpha serine/threonine-protein kinase (Homo sapiens) (UniProt P31749); experiment: Inhibition of human PKBalpha expressed in SF9 cells at 50 uM; values are per cent of control
[19] = biological target: T6, Serine/threonine-protein kinase Sgk1 (Homo sapiens) (UniProt O00141); experiment: Inhibition of His-tagged human SGK expressed in Sf9 cells at 50 uM; values are per cent of control
T6 sequence (whole entry): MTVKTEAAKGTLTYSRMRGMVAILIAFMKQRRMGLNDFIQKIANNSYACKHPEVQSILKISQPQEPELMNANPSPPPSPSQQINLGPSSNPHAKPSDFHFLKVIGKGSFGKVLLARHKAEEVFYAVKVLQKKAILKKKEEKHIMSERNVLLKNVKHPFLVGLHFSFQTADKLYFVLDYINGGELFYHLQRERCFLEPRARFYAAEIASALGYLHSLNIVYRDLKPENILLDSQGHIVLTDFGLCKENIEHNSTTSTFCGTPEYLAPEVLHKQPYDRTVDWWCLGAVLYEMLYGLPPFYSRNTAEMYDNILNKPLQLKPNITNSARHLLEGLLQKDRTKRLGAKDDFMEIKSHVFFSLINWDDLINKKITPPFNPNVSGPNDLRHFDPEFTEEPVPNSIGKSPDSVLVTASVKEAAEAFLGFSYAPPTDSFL

[20] = species: Oryctolagus cuniculus; experiment: Inhibition of MAPKAPK1b from rabbit skeletal muscle at 50 uM; values are per cent of control; conditions: Muscle tissue
[21] = biological target: T7, Casein kinase II (Homo sapiens) (UniProt P67870+P68400+P19784); experiment: Inhibition of His-tagged human CK2 expressed in Sf9 cells at 50 uM; values are per cent of control
[22] = biological target: [Pyruvate dehydrogenase (acetyl-transferring)] kinase isozyme 1, mitochondrial (Homo sapiens) (UniProt Q15118); experiment: Inhibition of His-tagged human PDK1 expressed in Sf21 cells at 50 uM; conditions: values are per cent of control
[23] = biological target: T5, Ribosomal protein S6 kinase beta-1; experiment: Inhibition of His-tagged human S6K1 expressed in Escherichia coli at 20 uM; values are per cent of control
[24] = species: Oryctolagus cuniculus; experiment: Inhibition of PHK from rabbit skeletal muscle at 20 uM; values are per cent of control; conditions: Muscle tissue
[25] = biological target: T2, Mitogen-activated protein kinase 13 (Homo sapiens); experiment: Inhibition of His-tagged human SAPK4/p38delta expressed in Escherichia coli at 20 uM; conditions: values are per cent of control
[26] = biological target: Serine/threonine-protein kinase N2 (Homo sapiens) (UniProt Q16513); conditions: HEK293, 20 uM
Chain of Serine/threonine-protein kinase N2 (Homo sapiens) (Q16513 whole entry, looked up): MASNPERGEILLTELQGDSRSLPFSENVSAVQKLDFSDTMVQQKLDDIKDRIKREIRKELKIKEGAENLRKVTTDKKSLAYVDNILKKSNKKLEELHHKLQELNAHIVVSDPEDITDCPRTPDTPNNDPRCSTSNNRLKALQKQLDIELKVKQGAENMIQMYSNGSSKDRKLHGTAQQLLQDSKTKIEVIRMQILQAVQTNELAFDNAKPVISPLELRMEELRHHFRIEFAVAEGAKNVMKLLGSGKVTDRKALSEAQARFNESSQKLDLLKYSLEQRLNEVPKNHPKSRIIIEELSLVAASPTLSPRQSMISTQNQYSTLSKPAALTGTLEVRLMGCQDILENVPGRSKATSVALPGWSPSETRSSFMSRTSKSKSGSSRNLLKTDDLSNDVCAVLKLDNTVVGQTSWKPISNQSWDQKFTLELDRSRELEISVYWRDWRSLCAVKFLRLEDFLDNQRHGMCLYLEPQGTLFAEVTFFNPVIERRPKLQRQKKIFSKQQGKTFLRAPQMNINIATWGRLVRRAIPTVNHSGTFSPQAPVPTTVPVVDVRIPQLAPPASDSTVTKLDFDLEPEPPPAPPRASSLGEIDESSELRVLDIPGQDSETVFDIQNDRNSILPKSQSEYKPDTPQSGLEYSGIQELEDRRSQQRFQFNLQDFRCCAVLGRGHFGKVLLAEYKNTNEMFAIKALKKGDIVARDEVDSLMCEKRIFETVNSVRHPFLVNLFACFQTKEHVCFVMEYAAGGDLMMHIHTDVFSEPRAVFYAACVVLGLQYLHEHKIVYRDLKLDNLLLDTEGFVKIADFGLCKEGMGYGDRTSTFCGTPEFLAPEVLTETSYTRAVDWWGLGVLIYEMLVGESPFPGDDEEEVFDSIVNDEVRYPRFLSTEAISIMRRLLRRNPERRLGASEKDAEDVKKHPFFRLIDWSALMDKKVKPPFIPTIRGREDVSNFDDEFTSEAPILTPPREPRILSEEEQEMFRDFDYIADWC
Description: Inhibition of His-tagged human PRK2 expressed in HEK293 cells at 20 uM

[27] = biological target: Mitogen-activated protein kinase 11 (Homo sapiens) (UniProt Q15759); experiment: Inhibition of His-tagged human SAPK2b/p38b2 expressed in Escherichia coli at 20 uM; values are per cent of control
[28] = species: Bos taurus; experiment: Inhibition of bovine heart PKA at 20 uM; values are per cent of control
[29] = biological target: Mitogen-activated protein kinase 8 (Homo sapiens) (UniProt P45983); experiment: Inhibition of His-tagged human JNK1a1/SAPK1c expressed in Escherichia coli at 20 uM; values are per cent of control
[30] = species: Rattus norvegicus; experiment: Inhibition of rat liver AMPK at 20 uM; values are per cent of control
[31] = biological target: T7, Casein kinase II (Homo sapiens); experiment: Inhibition of His-tagged human CK2 expressed in Sf9 cells at 20 uM; conditions: values are per cent of control
[32] = biological target: T1, Ribosomal protein S6 kinase alpha-5; experiment: Inhibition of His-tagged human MSK1 expressed in Sf9 cells at 20 uM; values are per cent of control
[33] = biological target: T4, Serine/threonine-protein kinase Chk1 (Homo sapiens); experiment: Inhibition of His-tagged human CHK1 expressed in Escherichia coli at 20 uM; values are per cent of control

COc1cccc(-c2cc(=O)c3ccccc3o2)c1N
residual activity [1]: 101%
level, % of control [2]: 87%
residual activity [3]: 86%
residual activity [4]: 94%
residual activity [5]: 96%
residual activity [6]: 111%
residual activity [7]: 95%
residual activity [8]: 80%
residual activity [9]: 85%
residual activity [10]: 106%
residual activity [11]: 99%
residual activity [12]: 85%
residual activity [13]: 100%
residual activity [14]: 89%
residual activity [15]: 97%
residual activity [16]: 93%
residual activity [17]: 95%
residual activity [18]: 82%
residual activity [19]: 90%
level, % of control [20]: 93%
residual activity [21]: 87%
residual activity [22]: 86%

O=S(=O)(c1cccc2cnccc12)N1CCCNCC1
residual activity [23]: 32%
level, % of control [24]: 58%
residual activity [25]: 103%
inhibition [26]: 15%
residual activity [27]: 97%
residual activity [28]: 35%
residual activity [29]: 96%
residual activity [30]: 77%
residual activity [31]: 102%
residual activity [32]: 19%
residual activity [33]: 82%
